Results reported in paper PMC8070033, “Bimetallic Iron–Palladium Catalyst System as a Lewis-Acid for the Synthesis of Novel Pharmacophores Based Indole Scaffold as Anticancer Agents” (Molecules, 2021).
In brackets after ≈: the same amount, converted by molar mass.

Legend:
[1] = test system: MCF-7 breast cancer cell line; assay: MCF-7 breast cancer cell line MTT assay; format: cell-based; settings: for IC50: MTT assay, 48 hours, ± SD from three independent experiments, NA: did not show anticancer activity at 30 µM
Protocol: (§1) Cytotoxicity against BJ Human fibroblast cells, and anti-cancer activity against PC3, HeLa and MCF-7 cancer cell lines were evaluated by following the procedure as described in the literature (Supplementary Materials). […]
(§2) of positive control – mean of O.D of negative control)*100). […]
(§3) Following concentrations were used to calculate (in case) of IC50:
(§4) Standard drug used in the MTT assay was doxorubicin. […]
D. MCF-7 breast cancer cell line assay.
MTT assay is a rapid and quantitative assay capable of measuring the surviving or proliferating cells.
It is based on the reduction of tetrazolium salt MTT (3-(4,5-dimethylthiazol-yl)-2,5-diphenyl tetrazolium bromide) by various dehydrogenase enzymes present in living cells. The tetrazolium ring present in MTT is cleaved in active mitochondria, which results in production of purple colored formazan crystals. These crystals are dissolved in DMSO and optical density of the color produced is taken by spectrophotometer (ELISA reader), with high efficiency and accuracy.
This assay was optimized and slightly modified according to our cell lines, i.e. MCF-7 breast cancer cell […]
1. MCF-7 cell line were cultured in Dulbecco’s modified Eagle medium (containing 10% fetal bovine serum) in 75 cc flasks, and kept in 5% CO 2 incubator at 37 °C.
2. Upon confluency, cells were harvested and plated in 96-well tissue culture treated flat bottom plates (seeding density 8,000 cells/well for MCF-7) in 100 µL medium.
3. Next day, compounds were added in triplicate at 50 µM concentration, and incubated for 48 hours. For natural extracts, the concentration was 50 µg/mL.
4. After 48 hrs incubation, the compounds were removed and 200 µL MTT at 0.5 mg/mL was added to each well and incubated at 37 °C for 3 hours.
5. Formazan crystals, formed by reduction of MTT were dissolved in 100 µL DMSO and absorbance was taken at 570 nm using micro-plate reader (Spectra Max plus, Molecular […]
6. The percent inhibition or decrease in viable cells was calculated by following formula:
% Inhibition = 100 - (mean of O.D. of test compound - mean of O.D. of negative control) / (mean of O.D. of positive control - mean of O.D. of negative control) x 100) […]
Twenty (20) mM stock concentration of compounds were diluted to working concentration of 50 µM, and then further serial dilutions were made in order to get less than 50% inhibition.
The IC50 was then calculated by using EZ-fit5 software.

[2] = test system: PC3 cells (Prostate Cancer); assay: PC3 cells (Prostate Cancer) MTT assay; format: cell-based; settings: for IC50: MTT assay, 48 hrs, ± SD from three independent experiments, NA: did not show anticancer activity at 30 µM
Protocol: (§5) Cytotoxicity against BJ Human fibroblast cells, and anti-cancer activity against PC3, HeLa and MCF-7 cancer cell lines were evaluated by following the procedure as described in the literature (Supplementary Materials).
The Biological Activity Assays Protocols
A. PC3 cells (Prostate Cancer) assay […]
For this purpose, PC3 cells (Prostate Cancer) were cultured in Dulbecco’s Modified Eagle Medium, supplemented with 5% of fetal bovine serum (FBS), 100 IU/ml of penicillin and 100 µg/ml of streptomycin in 75 cm2 flasks, and kept in 5% CO2 incubator at 37 °C. Exponentially growing cells were harvested, counted with haemocytometer and diluted with a particular medium. Cell culture with the concentration of 1x10^5 cells/ml was prepared and introduced (100 µL/well) into 96-well plates. After overnight incubation, medium was removed and 200 µL of fresh medium was added with different concentrations of compounds (1-30µM). After 48 hrs, 200 µL MTT (0.5 mg/ml) was added to each well and incubated further for 4 hrs. Subsequently, 100µL of DMSO was added to each well. The extent of MTT reduction to formazan within cells was calculated by measuring the absorbance at 570 nm, using a micro plate reader (Spectra Max plus, Molecular Devices, CA, USA). The cytotoxicity was recorded as concentration causing 50% growth inhibition (IC50) for PC3 cells. The percent inhibition was calculated by using the following formula: […]
(§6) of positive control – mean of O.D of negative control)*100).
(§7) The results (% inhibition) were processed by using Soft- Max Pro software (Molecular Device, USA).
Standard drug used in the MTT assay was doxorubicin.
(§8) 1. Mosmann T. Rapid colorimetric assay for cellular growth and survival: application to proliferation and cytotoxicity assays. J Immunol Meth 1983, 65, 55–63. […]

[3] = test system: HeLa cells (Cervical Cancer); assay: HeLa cells (Cervical Cancer) MTT assay; format: cell-based; settings: ± SD from three independent experiments, NA: did not show anticancer activity at 30 µM
Protocol: as §1, §6, §7, §3, §4
C. HeLa cells (Cervical Cancer) assay
Cytotoxic activity of compounds was evaluated in 96-well flat-bottomed micro plates by using the standard MTT (3-[4, 5-dimethylthiazole-2-yl]-2, 5-diphenyl-tetrazolium bromide) colorimetric assay40.
For this purpose, HeLa cells (Cervical Cancer) were cultured in Minimum Essential Medium Eagle, supplemented with 5% of fetal bovine serum (FBS) , 100 IU/ml of penicillin and 100 µg/ml of streptomycin in 75 cm2 flasks, and kept in 5% CO2 incubator at 37 °C. Exponentially growing cells were harvested, counted with haemocytometer and diluted with a particular medium. Cell culture with the concentration of 6x10^4 cells/ml was prepared and introduced (100 µL/well) into 96 -well plates. After overnight incubation, medium was removed and 200 µL of fresh medium was added with different concentrations of compounds (1-30µM). After 48 hrs, 200 µL MTT (0.5 mg/ml) was added to each well and incubated further for 4 hrs. Subsequently, 100µL of DMSO was added to each well. The extent of MTT reduction to formazan within cells was calculated by measuring the absorbance at 570 nm, using a micro plate reader (Spectra Max plus, Molecular Devices, CA, USA). The cytotoxicity was recorded as concentration causing 50% growth inhibition (IC 50) for HeLa. The percent inhibition was calculated by using the following formula: […]
The results (% inhibition) were processed by using Soft - Max Pro software (Molecular Device, USA).
as §8

Human fibroblast BJ = assay: Cytotoxicity MTT assay, BJ human fibroblast cells; format: cell-based; settings: 48 hrs, ± SD from three independent experiments, NA: did not show activity at 30 µM
Protocol: as §5
The Biological Activity Assays Protocols […]
as §2, §4
B. Cytotoxicity assay Protocol (BJ Human fibroblast cells) […]
standard MTT (3-[4, 5-dimethylthiazole-2-yl]-2, 5-diphenyl-tetrazolium bromide) colorimetric assay (Price & J. McMillan1, 1990). For this purpose, BJ Human fibroblast cells were cultured in Dulbecco’s Modified Eagle Medium, supplemented with 10% of fetal bovine serum (FBS), 100 IU/ml of penicillin and 100 µg/ml of streptomycin and 2 mM L‐glutamine in 75 cm2 flasks, and kept in 5% CO2 incubator at 37 °C (Mannerström, Toimela, Sarkanen & Heinonen, 2017).
Exponentially growing cells were harvested, counted with haemocytometer and diluted with a particular medium. Cell culture with the concentration of 6x10^4cells/ml was prepared and introduced (100 µL/well) into 96-well plates. After overnight incubation, medium was removed and 200 µL of fresh medium was added with different concentrations of compounds (1 -30µM). After 48 hrs, 200 µL MTT (0.5 mg/ml) was added to each well and incubated further for 3 hrs.
Subsequently, 100µL of DMSO was added to each well. The extent of MTT reduction to formazan within cells was calculated by measuring the absorbance at 550 nm, using a micro plate reader (Spectra Max plus, Molecular Devices, CA, USA). The cytotoxicity was recorded as concentra tion causing 50% growth inhibition (IC50) for BJ cells. The percent inhibition was calculated by using the following […]
Following concentrations were used to calculate (in case) of IC50: […]

A-549 (human lung) = test system: A-549 (human lung); design: method as in PMID 8597898, doi:10.1016/j.tet.2007.05.127, doi:10.1021/jo00248a040; settings: cited from earlier work
MDAMB (human mammary) = test system: MDAMB (human mammary); design: method as in PMID 8597898, doi:10.1016/j.tet.2007.05.127, doi:10.1021/jo00248a040; settings: cited from earlier work
HCT-8 (human colon) = test system: HCT-8 (human colon); design: method as in PMID 8597898, doi:10.1016/j.tet.2007.05.127, doi:10.1021/jo00248a040; settings: cited from earlier work
P-388 cell lines = test system: P-388 cell lines; design: method as in PMID 8597898, doi:10.1016/j.tet.2007.05.127, doi:10.1021/jo00248a040; settings: cited from earlier work

| SMILES | melting point [°C] | IC50 ([2]; Homo sapiens, PC-3, 48 h) [µM] | IC50 ([3]; Homo sapiens, HeLa, 48 h) [µM] | IC50 (Human fibroblast BJ) [µM] | IC50 ([1]; Homo sapiens, MCF7, 48 h) [µM] | also measured |
| --- | --- | --- | --- | --- | --- | --- |
| O=C(CC(c1cc2ccccc2o1)c1c[nH]c2ccccc12)c1ccccc1 (centres unmarked) [Compound 3a, 3-(Benzofuran-2-yl)-3-(1H-indol-3-yl)-1-phenylpropan-1-one] | 114 to 115 | 11.4 ± 0.2 | 22.5 ± 0.9 |  |  | anticancer activity against MCF-7 breast cancer cell line (in words) ([1]; in comparison to doxorubicin): inactive |
| O=C(CC(c1cc2ccccc2o1)c1c[nH]c2ccccc12)c1ccc(F)cc1 (centres unmarked) [Compound 3b, 3-(Benzofuran-2-yl)-1-(4-fluorophenyl)-3-(1H-indol-3-yl)propan-1-one] | 157 to 158 | 22.2 ± 0.5 | 8.2 ± 0.2 | > 30 | 12.3 ± 0.04 | IC50 [1]: 12.37 ± 0.04 µM |
| O=C(CC(c1cc2ccccc2o1)c1c[nH]c2ccc(Br)cc12)c1ccc(F)cc1 (centres unmarked) [Compound 3c, 3-(Benzofuran-2-yl)-3-(5-bromo-1H-indol-3-yl)-1-(4-fluorophenyl)propan-1-one] | 167 to 168 | 21.9 ± 1.5 | 10.8 ± 0.1 | > 30 | 25.9 ± 0.8 |  |
| O=C(CC(c1cc2ccccc2o1)c1c[nH]c2ccccc12)c1ccc(Cl)cc1 (centres unmarked) [Compound 3f, 3-(Benzofuran-2-yl)-1-(4-chlorophenyl)-3-(1H-indol-3-yl)propan-1-one] | 126 to 127 | 16.3 ± 1.6 | 11.9 ± 0.2 | > 30 | 19.3 ± 0.78 | IC50 [2]: 27 ± 0.4 µM |
| COc1cccc(C(=O)CC(c2cc3ccccc3o2)c2c[nH]c3cc(F)ccc23)c1 (centres unmarked) [Compound 3m, 3-(Benzofuran-2-yl)-3-(6-fluoro-1H-indol-3-yl)-1-(3-methoxyphenyl)propan-1-one] | 154 to 155 | 19.3 ± 0.1 | 15.2 ± 0.2 | > 50 | 22.9 ± 0.43 | IC50 [1]: 22.9 ± 0.43 µM |
| COc1ccccc1C(=O)CC(c1cc2ccccc2o1)c1c[nH]c2ccc(Br)cc12 (centres unmarked) [Compound 3s, 3-(Benzofuran-2-yl)-3-(5-bromo-1H-indol-3-yl)-1-(2-methoxyphenyl)propan-1-one] | 60 to 61 | 29.7 ± 0.5 | 18.4 ± 0.2 |  | 28.6 ± 0.33 | anticancer activity against PC3 prostate cancer cell line (in words) ([2]; in comparison to doxorubicin): inactive |
| COc1cccc2c1C(=O)c1c(O)c3c(c(O)c1C2=O)C[C@@](O)(C(=O)CO)C[C@@H]3O[C@H]1C[C@H](N)[C@H](O)[C@H](C)O1 [Doxorubicin, doxorubicin, reference compound] |  |  |  |  | 0.79 ± 0.05 | IC50 [2]: 1.9 ± 0.4 µM; IC50 ([2]; listed as doxorubicin): 0.9 ± 0.14 µM; IC50 ([3]; 48 hrs): 0.9 ± 0.14 µM; IC50 ([3]; 48 hrs, listed as doxorubicin): 1.9 ± 0.4 µM |
| CN1CC(c2c[nH]c3c(Br)c(Br)cc(O)c23)NCC1c1c[nH]c2cc(Br)ccc12 (centres unmarked) [dragmacidin] |  |  |  |  |  | IC50 against A-549 (human lung) cancer cell line (A-549 (human lung)): 1 to 10 µg/mL; IC50 against MDAMB (human mammary) cancer cell line (MDAMB (human mammary)): 1 to 10 µg/mL; IC50 against HCT-8 (human colon) cancer cell line (HCT-8 (human colon)): 1 to 10 µg/mL; IC50, anti-tumor activity against P-388 cell lines (P-388 cell lines): 15 µg/mL (≈ 25.7 µM) |
